ChEMBL document CHEMBL5576070, “The recent discovery of a promising pharmacological scaffold derived from carvacrol: A review” (Bioorg Med Chem Lett, 2024)
Converted amounts (≈) assume the structure as drawn.

Experiments:
Salmonella typhimurium [1] = assay: Antibacterial activity against Salmonella typhimurium DT104 assessed as inhibition of bacterial growth incubated for 18 hrs by CLSI protocol based microbroth dilution method; type: functional, Salmonella enterica subsp. enterica serovar Typhimurium; settings: Salmonella enterica
[2] = system: Staphylococcus epidermidis; assay: Antibacterial activity against Staphylococcus epidermidis ATCC 12228 assessed as reduction in bacterial growth incubated for 18 hrs by two fold serial microdilution method; type: functional
Pseudomonas aeruginosa [3] = assay: Antibacterial activity against Pseudomonas aeruginosa ATCC 15442 assessed as bacterial growth inhibition measured after 18 hrs by CLSI protocol based two-fold serial microdilution method; type: functional
Pseudomonas fluorescens [4] = assay: Antibacterial activity against Pseudomonas fluorescens assessed as zone of inhibition; type: functional
Pseudomonas fluorescens [5] = assay: Antibacterial activity against Pseudomonas fluorescens assessed as reduction in bacterial growth; type: functional
Escherichia coli [6] = assay: Antibacterial activity against Escherichia coli ATCC 25922 assessed as reduction in bacterial growth incubated for 18 to 20 hrs by broth microdilution assay; type: functional; settings: time 18-20 hrs
Staphylococcus aureus [7] = assay: Antibacterial activity against Staphylococcus aureus ATCC 29213 assessed as bacterial growth inhibition measured after 18 hrs by CLSI protocol based two-fold serial microdilution method; type: functional
Bacillus subtilis [8] = assay: Antibacterial activity against Bacillus subtilis assessed as reduction in bacterial growth incubated for 20 hrs by broth microdilution assay; type: functional
Clostridium perfringens [9] = assay: Antibacterial activity against Clostridium perfringens assessed as bacterial growth inhibition after 24 hrs by microdilution method; type: functional
Phytophthora capsici = assay: Antifungal activity against Phytophthora capsici; type: functional, organism-based
Acetylcholinesterase = Acetylcholinesterase (Homo sapiens, UniProt P22303); assay: Inhibition of AChE (unknown origin) using acetylthiocholine iodide as substrate by Ellman's method
[10] = Antibacterial activity against Salmonella enterica subsp. enterica serovar Pullorum assessed as inhibition of bacterial growth incubated for 18 hrs by CLSI protocol based microbroth dilution method; type: functional
[11] = Antioxidant activity assessed as DPPH radical scavenging activity incubated for 20 mins by spectrophotometric method; type: functional
Streptococcus pneumoniae = assay: Antibacterial activity against Streptococcus pneumoniae assessed as reduction in bacterial cell growth inhibition by broth microdilution method; type: functional, organism-based
Enterococcus faecalis = assay: Antibacterial activity against Enterococcus faecalis ATCC 10541 assessed as reduction in bacterial growth incubated for 24 hrs by broth microdilution method; type: functional, organism-based; settings: ATCC 10541, 24 h
MIA PaCa-2 [12] = assay: Growth inhibition of human MIA PaCa-2 cells measured for 48 hrs by SRB assay; type: functional
Escherichia coli [13] = assay: Antibacterial activity against Escherichia coli assessed as reduction in bacterial growth inhibition; type: functional
Salmonella typhimurium [14] = assay: Antibacterial activity against Salmonella typhimurium DT104 assessed as reduction in bacterial growth inhibition; type: functional, Salmonella enterica subsp. enterica serovar Typhimurium
Salmonella enteritidis = assay: Antibacterial activity against Salmonella enterica subsp. enterica serovar Enteritidis assessed as reduction in bacterial growth inhibition; type: functional
Clostridium perfringens [15] = assay: Antibacterial activity against Clostridium perfringens assessed as reduction in bacterial growth inhibition; type: functional
Helicobacter pylori = assay: Antibacterial activity against Helicobacter pylori assessed as reduction in bacterial growth incubated for 24 hrs by broth micro-dilution method; type: functional
Clostridium perfringens [16] = assay: Antibacterial activity against Clostridium perfringens assessed as inhibition of bacterial growth incubated for 18 hrs by CLSI protocol based microbroth dilution method; type: functional
Pseudomonas aeruginosa [17] = assay: Antibacterial activity against Pseudomonas aeruginosa ATCC 27853 assessed as bacterial growth inhibition measured after 18 hrs by CLSI protocol based two-fold serial microdilution method; type: functional
Staphylococcus aureus [18] = assay: Synergistic antibacterial activity against Staphylococcus aureus ATCC 29213 assessed as fractional inhibitory concentration incubated for 24 hrs in the presence of ampicillin by checkerboard assay; type: functional
Escherichia coli [19] = assay: Antibacterial activity against Escherichia coli ATCC 25922 assessed as zone of inhibition incubated for 24 hrs by agar diffusion method; type: functional
Pseudomonas aeruginosa [20] = assay: Bactericidal activity against Pseudomonas aeruginosa ATCC 27853 assessed as reduction in bacterial viability; type: functional
Bacillus subtilis [21] = assay: Antibacterial activity against Bacillus subtilis assessed as zone of inhibition; type: functional
Mus musculus = assay: Antinociceptive activity in Swiss mouse assessed as reduction in pain like behavior at 0.003 mg/kg, ip and measured after 1.5 hrs by cold plate test; type: functional; design: scale not given: the % may be the effect or the level left
Proteus vulgaris = assay: Antimicrobial activity against Proteus vulgaris NCIM 2813 assessed as zone of inhibition incubated for 24 hrs by agar diffusion method; type: functional
Staphylococcus aureus [22] = assay: Antibacterial activity against Staphylococcus aureus ATCC 25923 assessed as zone of inhibition by agar diffusion method; type: functional
Escherichia coli [23] = assay: Antibacterial activity against Escherichia coli assessed as reduction in bacterial growth by broth microdilution method; type: functional
Candida albicans [24] = assay: Fungicidal activity against Candida albicans assessed as reduction in fungal growth measured after 48 hrs by CLSI protocol based microdilution method; type: functional
Candida albicans [25] = assay: Antifungal activity against Candida albicans assessed as reduction in fungal growth incubated for 24 hrs by broth microdilution method; type: functional
Staphylococcus aureus [26] = assay: Antimicrobial activity against Staphylococcus aureus […] assessed as reduction in bacterial growth incubated for 24 hrs by Mueller-Hinton agar based analysis; type: functional
[27] = system: Staphylococcus epidermidis; assay: Antimicrobial activity against Staphylococcus epidermidis ATCC 12228 assessed as reduction in bacterial growth incubated for 24 hrs by Mueller-Hinton agar based analysis; type: functional
Escherichia coli [28] = assay: Antibacterial activity against Escherichia coli assessed as reduction in bacterial growth incubated for 24 hrs by Mueller-Hinton agar based analysis; type: functional
Pseudomonas aeruginosa [29] = assay: Antibacterial activity against Pseudomonas aeruginosa ATCC 15442 assessed as reduction in bacterial growth incubated for 24 hrs by Mueller-Hinton agar based analysis; type: functional
HCT-15 = assay: Growth inhibition of human HCT-15 cells incubated for 48 hrs by SRB assay; type: functional
MIA PaCa-2 [30] = assay: Growth inhibition of human MIA PaCa-2 cells incubated for 48 hrs by SRB assay; type: functional

Sequence of Acetylcholinesterase (P22303 whole entry): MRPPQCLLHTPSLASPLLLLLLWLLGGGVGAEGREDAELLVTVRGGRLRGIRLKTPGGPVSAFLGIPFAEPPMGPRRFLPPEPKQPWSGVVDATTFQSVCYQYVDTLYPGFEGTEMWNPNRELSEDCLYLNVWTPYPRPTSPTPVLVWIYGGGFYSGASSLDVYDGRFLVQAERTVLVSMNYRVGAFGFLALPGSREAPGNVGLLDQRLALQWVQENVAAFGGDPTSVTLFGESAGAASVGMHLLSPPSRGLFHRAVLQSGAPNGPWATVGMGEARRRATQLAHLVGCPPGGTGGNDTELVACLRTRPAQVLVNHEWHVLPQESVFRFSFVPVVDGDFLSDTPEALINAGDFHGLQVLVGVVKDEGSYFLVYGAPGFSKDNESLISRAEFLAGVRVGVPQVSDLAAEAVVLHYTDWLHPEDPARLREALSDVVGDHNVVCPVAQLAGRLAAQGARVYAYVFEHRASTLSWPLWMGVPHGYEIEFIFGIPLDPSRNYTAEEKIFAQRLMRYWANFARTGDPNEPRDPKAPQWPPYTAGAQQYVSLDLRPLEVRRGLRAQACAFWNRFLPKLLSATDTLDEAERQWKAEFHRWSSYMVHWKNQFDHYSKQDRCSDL

CCOc1cc(C(C)C)ccc1C
MIC (Salmonella typhimurium [1]): 0.2 µg/mL (≈ 1.12 µM)

COc1cc(C(C)C)ccc1C
MIC [2]: 0.06 µM (≈ 0.00985 µg/mL)
MIC (Pseudomonas aeruginosa [3]): 0.49 µM (≈ 0.0805 µg/mL)
inhibition zone (IZ) (Pseudomonas fluorescens [4]): 15 mm
MIC (Pseudomonas fluorescens [5]): 250 µg/mL (≈ 1520 µM)
MIC (Escherichia coli [6]): 250 µg/mL (≈ 1520 µM)
MIC (Staphylococcus aureus [7]): 250 µg/mL (≈ 1520 µM)
MIC (Bacillus subtilis [8]): 250 µg/mL (≈ 1520 µM)

Cc1ccc(C(C)C)cc1OCCn1c([N+](=O)[O-])cnc1C
MIC (Clostridium perfringens [9]): 1 µg/mL (≈ 3.3 µM)

Cc1ccc(C(C)C)cc1OC(=O)Cn1c([N+](=O)[O-])cnc1C
MIC (Clostridium perfringens [9]): 2.7 µg/mL (≈ 8.51 µM)

CCS(=O)(=O)Oc1cc(C(C)C)ccc1C
EC50 (Phytophthora capsici): 0.0666 µg/mL (≈ 0.275 µM)

Cc1ccc(C(C)C)cc1OCC(O)CNC(C)(C)C (configuration not stated)
IC50 (Acetylcholinesterase): 136 nM

Cc1ccc(C(C)C)cc1OC1CC[C@H](O)[C@@H](CO)O1 (some centres not stated)
MIC [10]: 0.5 µg/mL (≈ 1.78 µM)

Cc1cc(Cc2cc(C)c(O)cc2C(C)C)c(C(C)C)cc1O
IC50 [11]: 122 µg/mL (≈ 390 µM)

Cc1ccc(C(C)C)cc1OCC(=O)O
MIC (Salmonella typhimurium [1]): 0.1 µg/mL (≈ 0.48 µM)

Cc1ccc(C(C)C)cc1OCc1cn(-c2ccc(C(=O)O)cc2)nn1
IC50 (Streptococcus pneumoniae): 15 µg/mL (≈ 42.7 µM)
IC50 (Enterococcus faecalis): 15 µg/mL (≈ 42.7 µM)

Cc1ccc(C(C)C)c(/C=N/Nc2cc(Cl)ncn2)c1O
GI50 (MIA PaCa-2 [12]): 80 µg/mL (≈ 262 µM)

C=CCNCC(O)COc1cc(C(C)C)ccc1C (configuration not stated)
IC50 (Acetylcholinesterase): 136 nM

Cc1ccc(S(=O)(=O)N/N=C/c2c(C(C)C)ccc(C)c2O)cc1
GI50 (MIA PaCa-2 [12]): 10 µg/mL (≈ 28.9 µM)

Cc1ccc(C(C)C)cc1OCC(O)CNCCC1=CCCCC1 (configuration not stated)
IC50 (Acetylcholinesterase): 136 nM

CCCCCCCCCCCC(=O)Oc1cc(C(C)C)ccc1C
MIC (Escherichia coli [13]): >10 %v/v
MIC (Salmonella typhimurium [14]): >10 %v/v
MIC (Salmonella enteritidis): >10 %v/v
MIC (Clostridium perfringens [15]): <10 %v/v

Cc1cccc(COc2cc(C(C)C)ccc2C)c1
MIC (Helicobacter pylori): 2 µg/mL (≈ 7.86 µM)

CCN(CC)CC(O)COc1cc(C(C)C)ccc1C (configuration not stated)
IC50 (Acetylcholinesterase): 136 nM

C=CCOc1cc(C(C)C)ccc1C
MIC (Clostridium perfringens [16]): 110 µg/mL (≈ 578 µM)
MIC (Pseudomonas aeruginosa [17]): 110 µg/mL (≈ 578 µM)

Cc1cc(S(=O)(=O)[O-])c(C(C)C)cc1O.[K+]
MIC (Escherichia coli [13]): 5 %v/v
MIC (Salmonella typhimurium [14]): 1.25 %v/v
MIC (Salmonella enteritidis): 1.25 %v/v
MIC (Clostridium perfringens [15]): 0.37 %v/v

Cc1cc(S(=O)(=O)Nc2ccc(F)cc2)c(C(C)C)cc1O
FIC (Staphylococcus aureus [18]): 0.5

Cc1ccc(C(C)C)cc1OCC(=O)NNS(=O)(=O)c1cccc(C(F)(F)F)c1
inhibition zone (IZ) (Escherichia coli [19]): 10 mm

Cc1cc(Cl)c(C(C)C)cc1O
MIC (Pseudomonas aeruginosa [17]): 3.44 µg/mL (≈ 18.6 µM)
MBC (Pseudomonas aeruginosa [20]): 6.87 µg/mL (≈ 37.2 µM)

Cc1ccc(C(C)C)cc1OCC(=O)N/N=C/c1c(C(C)C)ccc(C)c1O
IC50 [11]: 0.16 µg/mL (≈ 0.418 µM)

Cc1cc(CO)c(C(C)C)cc1O
IC50 [11]: 156 µg/mL (≈ 865 µM)

Cc1ccc(C(C)C)cc1OCC(=O)NNS(=O)(=O)c1ccc(Cl)cc1
inhibition zone (IZ) (Escherichia coli [19]): 10 mm

Cc1cc(C)c(S(=O)(=O)N/N=C/c2c(C(C)C)ccc(C)c2O)c(C)c1
GI50 (MIA PaCa-2 [12]): 10 µg/mL (≈ 26.7 µM)

Cc1ccc(C(C)C)cc1OCC(=O)Nc1ccccc1
inhibition zone (IZ) (Bacillus subtilis [21]): 8 mm

Cc1ccc(C(C)C)cc1OCc1ccc(S(C)(=O)=O)cc1
MIC (Helicobacter pylori): 2 µg/mL (≈ 6.28 µM)

Cc1ccc(C(C)C)c(/C=N/c2c(C(C)C)ccc(C)c2O)c1O
GI50 (MIA PaCa-2 [12]): 16.9 µg/mL (≈ 51.9 µM)

Cc1c(O)cc(C(C)C)cc1S(=O)(=O)N1CCOCC1
Activity (Mus musculus): 62%

Cc1ccc(C(C)C)cc1OCC(O)CNCc1cccnc1 (configuration not stated)
IC50 (Acetylcholinesterase): 136 nM

Cc1ccc(C(C)C)cc1OCC(=O)Nc1cccc(Cl)c1
inhibition zone (IZ) (Bacillus subtilis [21]): 21 mm
inhibition zone (IZ) (Proteus vulgaris): 16 mm
inhibition zone (IZ) (Staphylococcus aureus [22]): 17 mm

Cc1ccc(C(C)C)cc1OCC(=O)Nc1ccc(Cl)cc1
inhibition zone (IZ) (Bacillus subtilis [21]): 18 mm
inhibition zone (IZ) (Proteus vulgaris): 10 mm
inhibition zone (IZ) (Staphylococcus aureus [22]): 20 mm

Cc1cc(S(=O)(=O)O)c(C(C)C)cc1O
MIC (Escherichia coli [13]): 0.75 %v/v
MIC (Salmonella typhimurium [14]): 0.75 %v/v
MIC (Salmonella enteritidis): 0.37 %v/v
MIC (Clostridium perfringens [15]): 0.37 %v/v

Cc1ccc(C(C)C)cc1OS(=O)(=O)c1cccs1
EC50 (Phytophthora capsici): 0.06124 µg/mL (≈ 0.207 µM)

CCCCCCCNC(=O)COc1cc(C(C)C)ccc1C
inhibition zone (IZ) (Bacillus subtilis [21]): 6 mm
inhibition zone (IZ) (Proteus vulgaris): 7 mm

Cc1ccc(C(C)C)c(/C=N/Nc2ccc(Cl)nn2)c1O
GI50 (MIA PaCa-2 [12]): 80 µg/mL (≈ 262 µM)

Cc1ccc(C(C)C)cc1O [CARVACROL]
MIC (Escherichia coli [23]): 450 µg/mL (≈ 3000 µM)
MFC (Candida albicans [24]): 512 µg/mL (≈ 3410 µM)
MIC (Candida albicans [25]): 256 µg/mL (≈ 1700 µM)
inhibition zone (IZ) (Bacillus subtilis [21]): 13 mm
inhibition zone (IZ) (Proteus vulgaris): 7 mm
MIC (Staphylococcus aureus [26]): 0.6 µg/mL (≈ 3.99 µM)
MIC [27]: 0.3 µg/mL (≈ 2 µM)
MIC (Escherichia coli [28]): 0.6 µg/mL (≈ 3.99 µM)
MIC (Pseudomonas aeruginosa [29]): 5 µg/mL (≈ 33.3 µM)
MIC (Escherichia coli [13]): <0.09 %v/v
MIC (Salmonella typhimurium [14]): 0.37 %v/v
MIC (Salmonella enteritidis): <0.09 %v/v
MIC (Clostridium perfringens [15]): <0.09 %v/v
IC50 [11]: 267 µg/mL (≈ 1780 µM)

COc1cccc2c1C(=O)c1c(O)c3c(c(O)c1C2=O)C[C@@](O)(C(=O)CO)C[C@@H]3O[C@H]1C[C@H](N)[C@H](O)[C@H](C)O1.Cl [DOXORUBICIN HYDROCHLORIDE]
GI50 (HCT-15): 80 µg/mL
GI50 (MIA PaCa-2 [30]): 80 µg/mL

CCC(C)(NC(=O)c1cc(Cl)c(C)c(Cl)c1)C(=O)CCl (configuration not stated) [ZOXAMIDE]
EC50 (Phytophthora capsici): 0.0268 µg/mL (≈ 0.0796 µM)
